This assay addresses IL-17RA/IL17RC dimerization induced by IL-17A (Homo sapiens, UniProt Q16552). As to the kind of experiment: IL-17RA/IL17RC dimerization assay in response to IL-17A (PathHunter Cytokine Receptor Assay). Type of assay: cell-based. The note with it: IL-17A at EC80; read-out: IC50 in IL-17RA/IL7RC dimerization assay. Summed up: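 PathHunter cells with IL-17RA and IL-17RC tagged for β-galactosidase complementation were preincubated 60 min with peptide (1% vehicle). IL-17A was then added at EC80 for 6–16 h at 37 °C, and chemiluminescence was read. Inhibition is relative to the EC80 and vehicle controls.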

Residues, ends and D or L forms follow the SMILES beside them.

Results on twelve molecules are retold here after patent US11236129B2, “IL-17A binding peptides and medical uses thereof” (Dompe' Farmaceutici S.P.A., priority 2018, dated 2022).

Sequence of IL-17RA/IL17RC dimerization induced by IL-17A (Q16552 24-155): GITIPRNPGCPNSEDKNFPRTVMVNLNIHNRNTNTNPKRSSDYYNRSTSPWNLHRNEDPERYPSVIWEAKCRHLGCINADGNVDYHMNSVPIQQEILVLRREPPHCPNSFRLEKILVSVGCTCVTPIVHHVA

With `CC[C@H](C)[C@H](NC(=O)[C@@H](NC(=O)[C@@H](NC(=O)[C@H](Cc1c[nH]cn1)NC(=O)[C@@H](NC(C)=O)C(C)C)C(C)C)[C@@H](C)O)C(=O)N1CCC[C@H]1C(=O)N[C@@H](C)C(=O)N[C@@H](CC(=O)O)C(=O)N[C@@H](CC(C)C)C(=O)N[C@@H](Cc1ccc(O)cc1)C(=O)N[C@@H](CC(N)=O)C(=O)N[C@@H](Cc1ccccc1)C(=O)N[C@@H](Cc1ccccc1)C(=O)N[C@@H](CCCNC(=N)N)C(=O)N[C@@H](CCCNC(=N)N)C(N)=O` [SEQ ID NO: 149] (Ac-VHVTIPADLYNFFRR-NH2), the IC50 was < 0.5 µM.

Regarding `CC(=O)N[C@H](C(=O)N[C@@H](Cc1c[nH]cn1)C(=O)N[C@@H](Cc1ccccc1)C(=O)N[C@@H](CCC(N)=O)C(=O)N[C@@H](Cc1ccccc1)C(=O)N1CCC[C@H]1C(=O)N[C@@H](CCC(N)=O)C(=O)N[C@@H](CC(=O)O)C(=O)N[C@@H](CC(C)C)C(=O)N[C@@H](Cc1c[nH]c2ccccc12)C(=O)N[C@@H](CCC(=O)O)C(=O)N[C@@H](Cc1c[nH]c2ccccc12)C(=O)N[C@H](C(=O)N[C@@H](CCCNC(=N)N)C(=O)N[C@@H](CCCNC(=N)N)C(N)=O)C(C)C)C(C)C` [SEQ ID NO: 150] (Ac-VHFQFPQDLWEWVRR-NH2), the IC50 is < 0.5 µM.

For `CC[C@H](C)[C@H](NC(=O)[C@@H](NC(=O)[C@H](Cc1ccccc1)NC(=O)[C@H](Cc1c[nH]cn1)NC(=O)[C@@H](NC(C)=O)C(C)C)[C@@H](C)O)C(=O)N1CCC[C@H]1C(=O)N[C@@H](CCC(N)=O)C(=O)N[C@@H](CC(=O)O)C(=O)N[C@@H](CC(C)C)C(=O)N[C@@H](Cc1ccc(O)cc1)C(=O)N[C@@H](CC(N)=O)C(=O)N[C@@H](Cc1c[nH]c2ccccc12)C(=O)N[C@@H](CCCNC(=N)N)C(=O)N[C@@H](CCCNC(=N)N)C(N)=O` [SEQ ID NO: 151] (Ac-VHFTIPQDLYNWRR-NH2), the IC50 was < 0.5 µM.

Consider `CC[C@H](C)[C@H](NC(=O)[C@@H](NC(=O)[C@H](Cc1ccccc1)NC(=O)[C@H](Cc1c[nH]cn1)NC(=O)[C@@H](NC(C)=O)C(C)C)[C@@H](C)O)C(=O)N1CCC[C@H]1C(=O)N[C@@H](C)C(=O)N[C@@H](CC(=O)O)C(=O)N[C@@H](CC(C)C)C(=O)N[C@@H](Cc1ccc(O)cc1)C(=O)N[C@@H](CC(N)=O)C(=O)N[C@@H](Cc1ccccc1)C(=O)N[C@H](C(=O)N[C@@H](CCCNC(=N)N)C(=O)N[C@@H](CCCNC(=N)N)C(N)=O)C(C)C` [SEQ ID NO: 152] (Ac-VHFTIPADLYNFVRR-NH2), for which the IC50 is < 0.5 µM.

`CC[C@H](C)[C@H](NC(=O)[C@H](CCC(N)=O)NC(=O)[C@H](Cc1ccccc1)NC(=O)[C@H](Cc1c[nH]cn1)NC(=O)[C@@H](NC(C)=O)C(C)C)C(=O)N1CCC[C@H]1C(=O)N[C@@H](CCC(N)=O)C(=O)N[C@@H](CC(=O)O)C(=O)N[C@@H](CC(C)C)C(=O)N[C@@H](Cc1ccc(O)cc1)C(=O)N[C@@H](CC(N)=O)C(=O)N[C@@H](Cc1ccccc1)C(=O)N[C@@H](Cc1ccccc1)C(=O)N[C@@H](CCCNC(=N)N)C(=O)N[C@@H](CCCNC(=N)N)C(N)=O` [SEQ ID NO: 153] (Ac-VHFQIPQDLYNFFRR-NH2): the IC50 is < 0.5 µM.

For the molecule `CC(=O)N[C@H](C(=O)N[C@@H](Cc1c[nH]cn1)C(=O)N[C@@H](Cc1ccccc1)C(=O)N[C@@H](CCC(N)=O)C(=O)N[C@@H](Cc1ccccc1)C(=O)N1CCC[C@H]1C(=O)N[C@@H](CCC(N)=O)C(=O)N[C@@H](CCC(=O)O)C(=O)N[C@@H](Cc1c[nH]c2ccccc12)C(=O)N[C@@H](Cc1ccc(O)cc1)C(=O)N[C@@H](CC(N)=O)C(=O)N[C@@H](Cc1c[nH]c2ccccc12)C(=O)N[C@@H](Cc1ccccc1)C(=O)N[C@@H](CCCNC(=N)N)C(=O)N[C@@H](CCCNC(=N)N)C(N)=O)C(C)C` [SEQ ID NO: 154] (Ac-VHFQFPQEWYNWFRR-NH2), the IC50 is < 0.5 µM.

As to `CC(=O)N[C@H](C(=O)N[C@@H](CCCNC(=N)N)C(=O)N[C@@H](Cc1ccccc1)C(=O)N[C@@H](CCC(N)=O)C(=O)N[C@@H](Cc1ccccc1)C(=O)NCC(=O)N[C@@H](CCC(N)=O)C(=O)N[C@@H](CCC(=O)O)C(=O)N[C@@H](Cc1c[nH]c2ccccc12)C(=O)N[C@@H](Cc1ccc(O)cc1)C(=O)N[C@@H](CC(N)=O)C(=O)N[C@@H](Cc1ccccc1)C(=O)N[C@@H](Cc1ccccc1)C(=O)N[C@@H](CCCNC(=N)N)C(=O)N[C@@H](CCCNC(=N)N)C(N)=O)C(C)C` [SEQ ID NO: 155] (Ac-VRFQFGQEWYNFFRR-NH2), the IC50 was < 0.5 µM.

Regarding `CC[C@H](C)[C@H](NC(=O)[C@@H](NC(=O)[C@@H](NC(=O)[C@H](Cc1c[nH]cn1)NC(=O)[C@@H](NC(=O)CNC(=O)[C@H](C)NC(=O)CNC(=O)[C@@H]1CCCN1C(=O)[C@@H](NC(=O)CNC(=O)[C@H](C)NC(=O)CNC(=O)[C@@H]1CCCN1C(=O)[C@@H](NC(C)=O)C(C)C)C(C)C)[C@@H](C)CC)C(C)C)[C@@H](C)O)C(N)=O` [SEQ ID NO: 156] (Ac-VPGAGVPGAGIHVTI-NH2), the IC50 was < 0.5 µM.

As to `CC[C@H](C)[C@H](NC(=O)CNC(=O)[C@H](C)NC(=O)CNC(=O)[C@@H]1CCCN1C(=O)[C@@H](NC(=O)CNC(=O)[C@H](C)NC(=O)CNC(=O)[C@@H]1CCCN1C(=O)[C@@H](NC(C)=O)C(C)C)C(C)C)C(=O)N[C@@H](Cc1c[nH]cn1)C(=O)N[C@H](C(=O)N[C@H](C(=O)N[C@H](C(=O)N1CCC[C@H]1C(=O)N[C@@H](C)C(N)=O)[C@@H](C)CC)[C@@H](C)O)C(C)C` [SEQ ID NO: 157] (Ac-VPGAGVPGAGIHVTIPA-NH2), the IC50 was < 0.5 µM.

For `CC[C@H](C)[C@H](NC(=O)[C@H](Cc1c[nH]c2ccccc12)NC(=O)[C@H](CC(=O)O)NC(=O)[C@H](Cc1c[nH]c2ccccc12)NC(=O)[C@H](CC(C)C)NC(=O)[C@H](CC(=O)O)NC(=O)[C@H](C)NC(=O)[C@@H]1CCCN1C(=O)[C@@H](NC(=O)[C@@H](NC(=O)[C@@H](NC(=O)[C@H](Cc1c[nH]cn1)NC(=O)[C@H](C)NC(C)=O)C(C)C)[C@@H](C)O)[C@@H](C)CC)C(=O)N[C@@H](CC(N)=O)C(=O)N[C@@H](CCCCN)C(N)=O` [SEQ ID NO: 158] (Ac-AHVTIPADLWDWINK-NH2), the IC50 is < 10 µM.

With `CC[C@H](C)[C@H](NC(=O)[C@H](Cc1c[nH]c2ccccc12)NC(=O)[C@H](CC(=O)O)NC(=O)[C@H](Cc1c[nH]c2ccccc12)NC(=O)[C@H](CC(C)C)NC(=O)[C@H](CC(=O)O)NC(=O)[C@H](C)NC(=O)[C@@H]1CCCN1C(=O)[C@@H](NC(=O)[C@@H](NC(=O)[C@@H](NC(=O)[C@H](Cc1c[nH]cn1)NC(=O)CNC(C)=O)C(C)C)[C@@H](C)O)[C@@H](C)CC)C(=O)N[C@@H](CC(N)=O)C(=O)N[C@@H](CCCCN)C(N)=O` [SEQ ID NO: 159] (Ac-GHVTIPADLWDWINK-NH2), the IC50 was < 10 µM.

Turning to `CC[C@H](C)[C@H](NC(=O)[C@H](Cc1c[nH]c2ccccc12)NC(=O)[C@H](CC(=O)O)NC(=O)[C@H](Cc1c[nH]c2ccccc12)NC(=O)[C@H](CC(C)C)NC(=O)[C@H](CC(=O)O)NC(=O)[C@H](C)NC(=O)[C@@H]1CCCN1C(=O)[C@@H](NC(=O)[C@@H](NC(=O)[C@@H](NC(=O)[C@H](Cc1c[nH]cn1)NC(=O)[C@H](CC(C)C)NC(C)=O)C(C)C)[C@@H](C)O)[C@@H](C)CC)C(=O)N[C@@H](CC(N)=O)C(=O)N[C@@H](CCCCN)C(N)=O` [SEQ ID NO: 160] (Ac-LHVTIPADLWDWINK-NH2), the IC50 is < 10 µM.
